Measurements published in PMC12524486, “Characterization of α-L-Rhamnosidase and β-D-Glucosidase Subunits of Naringinase Immobilized on a Magnetic Polysaccharide Carrier” (International Journal of Molecular Sciences, 2025).

Tests used:
[1] = test system: T1, β-D-glucosidase subunit of free naringinase from A. niger KMS; assay: p-nitrophenol release at […] nm, initial rates, Lineweaver-Burk; format: biochemical, Aspergillus niger; details: free enzyme (crude naringinase preparation), 0.1 M buffer pH 4.0, 50 °C, substrate 0.4-1.5 mM
T1 construct: gene beta-D-glucosidase; native secreted enzyme in a crude naringinase preparation (culture fluid ultrafiltered, acetone precipitated)

[2] = test system: T2, α-L-rhamnosidase subunit of free naringinase from A. niger KMS; assay: as above; format: biochemical, Aspergillus niger; details: free enzyme (crude naringinase preparation), 0.1 M buffer pH 4.0, 50 °C, substrate 0.4-1.5 mM
T2 construct: gene alpha-L-rhamnosidase; native secreted enzyme in a crude naringinase preparation (culture fluid ultrafiltered, acetone precipitated)

Km [1]	Km [2]	Structure (SMILES)
2720 ± 78 µM	–	O=[N+]([O-])c1ccc(O[C@@H]2O[C@H](CO)[C@@H](O)[C@H](O)[C@H]2O)cc1 [pNPG, 4-nitrophenyl β-D-glucopyranoside]
–	2080 ± 35.5 µM	C[C@@H]1O[C@@H](Oc2ccc([N+](=O)[O-])cc2)[C@H](O)[C@H](O)[C@H]1O [pNPR, 4-nitrophenyl α-L-rhamnopyranoside]
